Source: patent US20080019926A1, “Lung Surfactant Supplements” (priority 2004, published 2008)
“Also recorded” adds a separate entry of the source.

Columns and labels:
Type in all cases: physicochemical
[1] = Compression isotherm (surface pressure versus molecular area) of a Langmuir DPPC monolayer as pulmonary surfactant model
Procedure: The monolayer of native pulmonary surfactant was modeled by a Langmuir monolayer of DPPC. In this model, the DPPC molecules were spread using a spreading solvent onto the surface of water contained in a trough coated with Teflon®. After evaporation of the solvent, the DPPC molecules were progressively compressed using two mobile Teflon® barriers. The variation of the surface pressure was measured as a function of the compression by a pressure sensor such as a Wilhelmy blade.
Small quantities of perfluorooctyl bromide (PFOB) in liquid form (1-200 μl), contacted with the DPPC monolayer, result in the disappearance of the liquid expanded/liquid condensed phase transition of the phospholipid. […] FIG. 1 compares the compression isotherms of a DPPC monolayer alone and in contact with the fluorocarbon. In absence of fluorocarbon, one notes the presence of a plateau reflecting the coexistence of the expanded liquid state (fluid phase) and the condensed liquid state (crystalline islets). […] The DPPC monolayer is totally fluid.
Placing the Langmuir trough in a close space saturated with PFOB vapour, it is possible to study the interactions between the DPPC monolayer and the gaseous PFOB.

[2] = Fluorescence microscopy of the DPPC monolayer contacted with gaseous fluorocarbon
Description: Fluorescence microscopy makes it possible to visualize the dissolution of crystalline islets of DPPC molecules when the monolayer is contacted with gaseous PFOB (FIG. 3A).

[3] = Grazing incidence X-ray diffraction of the DPPC monolayer; settings: gaseous fluorocarbon, DPPC monolayer compressed at 40 mN·m^−1
Description: The two diffraction peaks seen in the absence of fluorocarbon are characteristics of the molecular organisation of DPPC in crystalline islets (▪).

[4] = gaseous fluorocarbon, saturated atmosphere

Structure (SMILES) | state of the DPPC monolayer ([1]; gaseous fluorocarbon) | plateau reflecting the coexistence of the expanded liquid state (fluid phase) and the condensed liquid state (crystalline islets) in the DPPC compression isotherm [1, 4] | state of the DPPC monolayer ([1]; liquid fluorocarbon) | plateau reflecting the coexistence of the expanded liquid state (fluid phase) and the condensed liquid state (crystalline islets) in the DPPC compression isotherm ([1]; liquid fluorocarbon (1-200 μl) contacted with the DPPC monolayer) | crystalline islets of DPPC seen by fluorescence microscopy, course with time ([2]; monolayer compressed at 10 mN·m^−1, 3, 5 and 7 min) | crystalline islets of DPPC seen by fluorescence microscopy ([2]; monolayer compressed at 10 mN·m^−1, after 3 minutes) | crystalline islets of DPPC seen by fluorescence microscopy ([2]; monolayer compressed at 10 mN·m^−1, after 5 minutes) | crystalline islets of DPPC seen by fluorescence microscopy ([2]; monolayer compressed at 10 mN·m^−1, after 7 minutes) | diffraction peaks characteristic of DPPC crystalline islets / crystalline islets [3]
FC(F)(F)C(F)(F)C(F)(F)C(F)(F)C(F)(F)C(F)(F)C(F)(F)C(F)(F)Br [PFOB, 1-bromo-heptadecafluorooctane] | totally fluid | no longer seen; also recorded: disappears | totally fluid | no longer seen; also recorded: disappeared totally | progressively disappear | becomes small | almost completely re-spread | completely disappeared | –
FC(F)(F)C(F)(F)C(F)(F)C(F)(F)C=CC(F)(F)C(F)(F)C(F)(F)C(F)(F)F [Example F-44E, bis(perfluorobutyl)ethene] | – | no longer seen; also recorded: disappears | – | – | – | – | – | – | these peaks have disappeared; also recorded: disappearance of the crystalline islets
